Test in all cases: DiFMUP hydrolysis, fluorogenic phosphatase assay
Holding throughout (type): biochemical

The target in assay [1] is rat PTPRZ-D1D2 (PTPRZ-ICR) (Rattus norvegicus, UniProt Q62656, D2178K/D2179K). As to conditions: substrate DiFMUP; competitive; also bound 1:1 in native MS.
Assay [2] addresses rat PTPRZ-D1D2 (PTPRZ-ICR) (Rattus norvegicus, UniProt Q62656). Conditions: substrate DiFMUP; competitive; also bound 1:1 to monomer in native MS.
In assay [3] the target is PTPRZ-ΔD2 (ΔD2 mutant of PTPRZ-ICR) (Rattus norvegicus, UniProt Q62656). As to conditions: substrate DiFMUP; competitive; also bound 1:1 in native MS.

The term IC50 denotes the concentration that inhibits the measured activity by half.

Chain of rat PTPRZ-D1D2 (PTPRZ-ICR) (Rattus norvegicus, UniProt Q62656, D2178K/D2179K) (Q62656 1699-2316 D2178K/D2179K): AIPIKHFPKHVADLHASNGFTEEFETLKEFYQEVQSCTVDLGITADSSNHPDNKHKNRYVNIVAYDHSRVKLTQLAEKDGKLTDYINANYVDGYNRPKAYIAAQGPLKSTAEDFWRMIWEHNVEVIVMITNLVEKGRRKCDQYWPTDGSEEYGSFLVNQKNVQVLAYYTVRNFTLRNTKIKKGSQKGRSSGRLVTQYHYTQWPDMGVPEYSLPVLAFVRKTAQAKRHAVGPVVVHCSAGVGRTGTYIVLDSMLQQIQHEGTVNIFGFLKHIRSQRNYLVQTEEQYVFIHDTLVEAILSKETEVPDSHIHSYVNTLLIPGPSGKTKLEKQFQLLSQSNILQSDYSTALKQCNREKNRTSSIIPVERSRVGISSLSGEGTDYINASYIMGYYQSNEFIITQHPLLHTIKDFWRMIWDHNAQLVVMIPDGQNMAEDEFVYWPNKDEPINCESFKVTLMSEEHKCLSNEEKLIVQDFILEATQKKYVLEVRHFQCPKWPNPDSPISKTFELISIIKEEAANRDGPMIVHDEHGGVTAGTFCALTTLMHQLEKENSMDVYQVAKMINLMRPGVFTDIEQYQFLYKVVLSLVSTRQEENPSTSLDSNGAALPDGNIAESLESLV
Chain of rat PTPRZ-D1D2 (PTPRZ-ICR) (Rattus norvegicus, UniProt Q62656) (Q62656 1699-2316): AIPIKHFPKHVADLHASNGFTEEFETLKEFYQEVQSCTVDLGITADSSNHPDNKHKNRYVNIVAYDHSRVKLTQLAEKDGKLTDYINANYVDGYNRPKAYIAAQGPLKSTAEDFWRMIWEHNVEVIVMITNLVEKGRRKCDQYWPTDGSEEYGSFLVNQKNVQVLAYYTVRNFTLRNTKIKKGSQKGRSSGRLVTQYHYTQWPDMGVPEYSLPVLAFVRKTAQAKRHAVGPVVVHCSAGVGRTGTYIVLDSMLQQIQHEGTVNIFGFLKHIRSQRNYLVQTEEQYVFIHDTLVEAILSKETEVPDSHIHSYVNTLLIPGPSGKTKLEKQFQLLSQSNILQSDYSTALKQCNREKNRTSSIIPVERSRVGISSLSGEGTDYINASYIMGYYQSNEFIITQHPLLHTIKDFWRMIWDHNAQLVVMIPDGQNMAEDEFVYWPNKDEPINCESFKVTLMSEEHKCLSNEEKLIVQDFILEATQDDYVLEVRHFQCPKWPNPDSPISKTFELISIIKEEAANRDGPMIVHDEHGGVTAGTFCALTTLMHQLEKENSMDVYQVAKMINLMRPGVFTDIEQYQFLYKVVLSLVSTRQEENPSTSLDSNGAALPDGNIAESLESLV

In the case of SCB4380, the figures for the IC50 in assay [1], in assay [2] and in assay [3] were 370 nM, 380 nM and 400 nM, respectively.
